Results on one compound are retold here after patent publication US12351587B2, “Bicyclic compound as RIP-1 kinase inhibitor and application thereof” (MEDSHINE DISCOVERY INC., priority 2019, dated 2025).

The structures appear in SMILES notation.

What is called IC50 is the concentration that inhibits the measured activity by half. The AUC(0-t) is exposure summed from dosing to a finite time, without extrapolation to infinity. Higher therefore signals high exposure. As usually defined, the clearance is a measure of how efficiently the substance is removed, as volume per time. Read a low clearance as a low capacity for elimination. By half-life is commonly meant the time in which the quantity being followed falls by half. The term bioavailability denotes the share of a dose that reaches the circulation, judged against a reference dose that is usually intravenous. A word on the Cmax: it is the peak of the concentration-time curve. For orientation: Tmax means the time at which the peak concentration occurs.

Data set [1] is described as follows: Plasma protein binding rate (PPB), rat plasma. The following applies: 2 μM, dialysis 4 hours 37° C. The format is in vitro ADME, SD rats. The procedure:
796 μL of bank plasma from humans, SD rats and CD-1 mice (plasma purchased from BioreclamationIVT) were weighed, and the assay compound working solution or warfarin working solution was added so that the final concentration of the assay compound and warfarin in the plasma sample was 2 μM. The samples were mixed thoroughly. The final concentration of DMSO in the organic phase was 0.5%, 50 μL of plasma samples of the assay compound and warfarin were pipetted to a sample receiving plate, and the corresponding volume of the corresponding blank plasma or buffer was added immediately, so that the final volume in each sample well was 100 μL, wherein the volume ratio of plasma:dialysis buffer was 1:1. Stop solution was then added to these samples. These samples were used as T0 samples for determination of recovery and stability. The plasma samples of the assay compound and warfarin were added to the dosing end of each dialysis well, and blank dialysis buffer was added to the corresponding receiving end of the dialysis well. […] All samples were subjected to protein precipitation, and then analyzed by LC/MS/MS. Unbound rate (% Unbound), bound rate (% Bound), and recovery rate (% Recovery) of the compound were calculated using the following formulae: % Unbound=100*FC/TC, % Bond=100−% Unbound, and % Recovery=100*[…]/T0, […]

The test system of a further data set is U937 cells. As to the kind of experiment: U937 cell activity assay: TNFα/QVD-OPh-induced programmed cell necrosis (necroptosis). The format is cell-based, human. The following applies: Homo sapiens, U-937, 24 h, QVD-OPh 25 μM + TNF-α 100 ng/mL, CellTiter Glo. As to the method: 1.2 Instrument and Materials
Envision plate reader (Perkin Elmer, Cat #2104-0010)
1.3 Formulation of Reagents • (1) 1×DPSB: To 100 mL of 10×DPBS was added 900 mL of deionized water. • (2) 1640 complete medium: To 89 mL of RPMI-1640 medium were added 10 mL of FBS and 1 mL of penicillin/streptomycin 2. Assay Steps • 1. U937 cells were centrifuged, and then the medium was discarded. The cells were resuspended in 1640 complete medium and counted. The cell concentration was adjusted to 5×10^5 cells/mL for use, and the cells were arranged according to compounds to be assayed. • 2. To the prepared resuspension of U937 cells were added QVD-OPh at a final concentration of 25 μM and TNF-α at a final concentration of 100 ng/mL, and then the mixture was mixed gently. • 3. To a 384-well plate was added 30 μL/well of U937 cells containing 25 μM of QVD-OPh and TNF-α at a final concentration of 100 ng/mL, and blank control wells without QVD-OPh and TNF-α were set up. • 4. To the dosing group […] added 10 μL of the assay compound at 4 times the preset concentration, and to the blank control well was added DMSO at the corresponding concentration. • 5. The 384-well plate was placed in a 37° C. and 5% CO2 cell incubator for 24 hours. • 6. After 24 hours, the 384-well plate was taken out and equilibrated at room temperature for 20 minutes. • 7. 40 μL of CTG was added to each well, and then the plate was shaken on a shaker in the dark for 2 minutes. • 8. The plate was incubated at room temperature in the dark for 10 minutes, and then read using an Envision plate reader.
(In general: Cellular ATP, detected with luciferase, serves as a proxy for viable cell number.)

The nature of data set [2]: Pharmacokinetics in C57BL/6 mice. The format is in vivo. The following applies: C57BL/6, plasma, mouse. The procedure: Eight healthy adult C57BL/6 mice (6-9 weeks old, purchased from Shanghai Lingchang Biotechnology Co., Ltd.) were selected, and randomly divided into two groups, 4 mice in each group (n=2, cross blood sampling). One group was given 0.5 mg/kg of the assay compound by intravenous injection, and the other group was given 1 mg/kg of the assay compound by gavage. Plasma samples were collected respectively from animals in the intravenous group and gavage group at 0.083, 0.25, 0.5, 1.0, 2.0, 4.0, 6.0, 8.0, 24 hours after administration. The blood concentration was determined by LC-MS/MS method. Relevant pharmacokinetic parameters were calculated by WinNonlin™ Version 6.3 (Pharsight, Mountain View, CA) pharmacokinetic software using non-compartmental model and linear logarithmic trapezoidal method. AUC0-last represents the area under the plasma concentration-time curve from zero time point to the last detectable concentration time point; Cmax represents the peak concentration; Tmax represents the time to reach the peak; T1/2 represents the half-life. CL represents the clearance rate; Tlast represents the last quantifiable time point; p.o. represents per os; i.v. represents intravenous injection; and F % represents oral bioavailability.

Data set [3] in a line: Pharmacokinetic parameters in dogs. The following applies: beagle, plasma, dog. The format is in vivo. As to the method: Four healthy adult beagle dogs were selected and randomly divided into two groups. One group was given the assay compound by intravenous injection, and the other group was given the assay compound by gavage. Plasma samples were collected respectively from animals in the intravenous group and gavage group at 0.083, 0.25, 0.5, 1.0, 2.0, 4.0, 6.0, 8.0, 24 hours after administration. The blood concentration was determined by LC-MS/MS method. Relevant pharmacokinetic parameters were calculated by WinNonlin™ Version 6.3 (Pharsight. Mountain View, CA) pharmacokinetic software using non-compartmental model and linear logarithmic trapezoidal method. AUC0-last represents the area under the plasma concentration-time curve from zero time point to the last detectable concentration time point; Cmax represents the peak concentration; Tmax represents the time to reach the peak; T1/2 represents the half-life; CL represents the clearance rate; Vdss represents apparent volume of distribution; p.o. represents per os; i.v. represents intravenous injection; and F % represents oral bioavailability.

`CN1C(=S)[C@@H](NC(=O)c2ncn(Cc3ccccc3)n2)COc2cccnc21` [WX009] had a PPB_Unbound in data set [1] of 29.7%. Also, the IC50 with U937 cells was found to be 1.4 nM. Moreover, the AUC(0-t) in data set [2] (iv, i.v. 0.5 mg/kg) worked out at 2.21 µM·h; in data set [2] (po, p.o. 1 mg/kg), 3.85 µM·h; in data set [3] (3 mg/kg, iv = 3 mpk), 20.8 µM·h; in data set [3] (10 mg/kg, po = 10 mpk), 23.6 µM·h. Besides, the clearance in data set [2] (iv, i.v. 0.5 mg/kg) was 9.4 mL/min/kg; in data set [3] (3 mg/kg, iv = 3 mpk), 6.2 mL/min/kg. Moreover, the half-life in data set [2] (iv, i.v. 0.5 mg/kg) is 1.4 h; in data set [3] (3 mg/kg, iv = 3 mpk), 5.5 h. The Vd in data set [2] (iv, i.v. 0.5 mg/kg, read-out: Vdss) came out at 1.1 L/kg; in data set [3] (3 mg/kg, iv = 3 mpk, read-out: Vdss), 2.4 L/kg. The bioavailability in data set [2] (oral, p.o. 1 mg/kg vs i.v. 0.5 mg/kg) is 89.1%; in data set [3] (po = 10 mpk vs iv = 3 mpk), 34.2%. For the same compound, the Cmax in data set [2] (po, p.o. 1 mg/kg) was found to be 1500 nM; in data set [3] (10 mg/kg, po = 10 mpk) it was 284 nM. The Tmax in data set [2] (po, p.o. 1 mg/kg) came out at 0.5 h; in data set [3] (10 mg/kg, po = 10 mpk), 2 h.
